According to patent US4973578A, “Synthetic peptides derived from the alpha-subunit of human lycoprotein hormones” (Mayo Foundation for Medical Education and Research, priority 1988, dated 1990):
Values joined by “and” are separate entries in the source; they are usually repeats but may differ in a detail not shown here. Equal entries are not always repeated. “Also recorded” adds a separate entry of the source. Residues, ends and D or L forms follow the SMILES beside them.

Columns and labels:
[1] = test system: TSH mediated cAMP generation in FRTL-5 cells; assay: Inhibition of TSH mediated cAMP generation in FRTL-5 cells; assay type: cell-based, rat; conditions: for percent inhibition of TSH mediated cAMP generation: 200 mU/L bTSH, 2 hrs 37° C.
Procedure: FRTL-5 cells were maintained in Ham's F-12 medium supplemented with 5% calf serum and a 6 hormone preparation including 10 mU/ml bTSH as described by Ambesi-Impiombato et al., Proc. Natl. Acad. Sci. U.S.A., 77:3455 (1980), the disclosure of which is incorporated herein. For all assays herein described, the cells were plated in 24 well plates and grown for 3 days at 37° C. then maintained for 5-7 days in medium supplemented with 10 ug insulin alone prior to assay.
The bioassay was a modification of those previously described by Bidey et al, J. Endocrinol., 101:269 (1984); and Kasagi et al., ACTA Endocrinol., 115:30 (1987). To duplicate culture wells were added varying concentrations of test materials (see below) in a final volume of 300 ul of NaCl free HBSS with 0.5 mM iso-butyl-methyl-xanthine (IBMX, Sigma, St. Louis). In stimulation assays, only synthetic α-subunit peptides were added to the incubation medium. For inhibition assays, the noted concentrations of synthetic α-subunit peptides were added immediately prior to the addition of 200 mU/L bTSH. The plates were incubated at 37° C. in 5% CO2 for 2 hrs then 100 ul of incubation medium was removed and diluted in 900 ul of 0.05M sodium acetate pH 6.2 and assayed for cAMP content by RIA in accordance with procedures described by Wray and Glinos, Am. J. Physiol., 234 (Cell Phisol. 3):C131(1978)); and Steiner et al., J. Biol. Chem., 247:1106 (1972). […] Basal cAMP levels were determined in the presence of HBSS and IBMX alone. In inhibition assays percent inhibition was calculated as follows: [formula]
FIG. 4 reports data obtained for TSH deprived FRTL-5 cells incubated with a fixed amount of bTSH (200 mU/l) by itself or with various concentrations of synthetic peptides. cAMP content of medium was measured after 2 hrs. incubation at 37° C. Percent inhibition of cAMP generation was calculated as noted above.

[2] = molecular target: T1, TSH receptor on human thyroid membranes (Homo sapiens, UniProt P16473); assay: TSH radioreceptor assay: inhibition of 125I-bTSH binding to human thyroid membrane preparations; conditions: for IC50: human thyroid membrane homogenates, ± S.E., read-out: bTSH ED50 (effective dose necessary to inhibit binding of 125I-bTSH by 50%); for inhibition of 125I-bTSH binding, result in words: human thyroid membranes
T1 construct: Thyroid tissue obtained at surgery from patients with Graves' disease was prepared as described by Takahashi et al; from tissue; host or cells: human thyroid tissue from Graves' disease patients, 2000xg membrane fraction
T1 sequence (P16473 21-764): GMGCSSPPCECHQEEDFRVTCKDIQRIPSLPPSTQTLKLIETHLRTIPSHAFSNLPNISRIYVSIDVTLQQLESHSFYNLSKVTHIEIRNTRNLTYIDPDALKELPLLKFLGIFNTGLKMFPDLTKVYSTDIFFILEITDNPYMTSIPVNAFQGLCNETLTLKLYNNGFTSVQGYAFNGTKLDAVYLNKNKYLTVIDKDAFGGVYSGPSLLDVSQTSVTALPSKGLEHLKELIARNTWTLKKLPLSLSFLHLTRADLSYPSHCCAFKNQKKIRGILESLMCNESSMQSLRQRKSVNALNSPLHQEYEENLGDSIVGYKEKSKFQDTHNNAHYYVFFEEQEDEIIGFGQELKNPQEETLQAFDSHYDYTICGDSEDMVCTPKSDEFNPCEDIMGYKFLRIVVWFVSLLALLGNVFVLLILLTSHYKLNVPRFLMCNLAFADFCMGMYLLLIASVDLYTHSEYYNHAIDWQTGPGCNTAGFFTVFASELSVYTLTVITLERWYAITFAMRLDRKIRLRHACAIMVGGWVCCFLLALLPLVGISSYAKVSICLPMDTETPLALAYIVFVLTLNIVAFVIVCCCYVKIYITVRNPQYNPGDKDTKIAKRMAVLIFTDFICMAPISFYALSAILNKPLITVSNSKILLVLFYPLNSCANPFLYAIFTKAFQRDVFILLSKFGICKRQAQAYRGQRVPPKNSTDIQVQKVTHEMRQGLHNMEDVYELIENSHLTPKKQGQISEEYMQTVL
Procedure: Thyroid tissue obtained at surgery from patients with Graves' disease was prepared as described by Takahashi et al., J. Clin. Endocrinol. Metab. 47:870 (1978), the disclosure of which is incorporated herein. Briefly, the tissue was dissected free of fibrous material, minced with scissors, and homogenized with Polytron homogenizer. The 2000×g fraction was collected by centrifugation, washed and resuspended in 40 mM Tris, 0.1% Bovine Serum Albumin (BSA) pH 7.4 at a concentration of 100 mg equivalents of wet tissue per milliliter. The preparation was stored at -70° C. until used for assay.
Highly purified bovine TSH (30 IU/mg, supplied by Dr. J. G. Pierce, UCLA) was radio-iodinated (Na^125 I, Amersham, Chicago) by a gentle lactoperoxidase procedure described by Takahashi et al., supra, then purified by Sephadex G-100 chromatography.
The membrane assay incubation mixture consisted of […] of the 2000×g membrane fraction, 0.125 ng ^125 I bTSH (approximately 20,000 cpm, 5×10^-12 M), 100 ul of 1% Triton X-100 and noted amounts of test materials in a final volume of 0.5 ml of 40 mM Tris-HCl pH 7.4 plus 0.1% BSA. Nonspecific binding was determined by addition of excess unlabeled bTSH (200 mU/ml, Sigma, St. Louis). After 2 hrs incubation at 25° C., 200 ul of 5 mg/ml bovine gamma globulin and 1 ml 30% polyethylene glycol 6000 (Baker, Phillipsburg, N.J.) in 1M NaCl was added to each tube and the tubes centrifuged at 4000 rpm for 25 minutes. The supernatants were aspirated and pellets counted in a gamma counter. Specific binding averaged 25% of total counts.
FIG. 1 reports 5×10^-12 M labeled bTSH incubated with 10 mg equivalents (wet weight) of 2000×g fraction of thyroid membranes with varying concentrations of unlabeled TSH or synthetic α-subunit peptides. Nonspecific binding was determined in the presence of excess unlabeled TSH.

[3] = test system: thyroid stimulating immunoglobulin (TSI) stimulated cAMP in FRTL-5 cells; assay: TSI bioassay: inhibition of thyroid stimulating immunoglobulin activity (PEG-precipitated patient immunoglobulin) in FRTL-5 cells; assay type: cell-based, rat; conditions: for Percent inhibition of TSI activity, mean: mean of patient samples tested
Text: Ten patients (8 women and 2 men) with Graves' disease and high levels of TSI were identified after evaluation by FRTL-5 cell bioassay in the clinical chemistry laboratory. (FRTL-5 bioassay described below employing known TSH receptor recognition of various species hormones) Consecutive samples that had indices greater than 15 and sufficient serum remaining for further evaluation were chosen. Seven of the 10 had serum thyroxine values above the normal range and 9 of 10 had TSH levels below the euthyroid range by sensitive immunoradiometric assay [Boots-Celltech Sucrosep, Berkshire, UK, conducted as described in Klee and Hay, J. Clin. Endocrinol. Metab., 64:461 (1987)]. (FIG. 5). For comparison serum from 13 normal subjects was examined for TSI at the same serum dilution as the patient sera. (FIG. 5).
FRTL-5 cells were maintained in Ham's F-12 medium supplemented with 5% calf serum and a 6-hormone preparation (6H) as described by Ambesi-Impiombato, supra. The cells were removed from flasks enzymatically, plated at 150,000 cells per well in 24 well plates, and grown in 6H medium for 4 days. The medium was then replaced with fresh medium supplemented with insulin only (1H) for 7 days prior to assay. The bioassay was a modification of that described by Kasagi et al., supra. Briefly, immunoglobulins were precipitated from 2 ml of serum with 6 ml 20% polyethylene glycol 6000 (Baker, Phillipsburg, N.J.), centrifuged at 2800×g for 20 minutes, and then reconstituted in 2.4 ml buffer (NaCl-free Hanks balanced salt solution, NaCl-free HBSS), containing 1 mM iso-butyl-methyl-xanthine (IBMX, Sigma, St. Louis) and 1.5% BSA. After washing the cells with HBSS, 150 ul of buffer was added to the wells plus varying concentrations of synthetic α-subunit peptides followed immediately by 150 ul of the crude immunoglobulin extract. The plates were incubated for 2 hours at 37° C., 5% CO2 after which 100 ul of medium was removed and diluted in 900 ul 50 mM sodium acetate buffer, pH 6.2. cAMP content was determined by radioimmunoassay using the procedures described in Wray and Glinos, supra and Steiner et al., supra. Basal cAMP levels were determined in the absence of immunoglobulin extract and synthetic peptides for each plate. Basal and maximum levels were determined in quadruplicate; peptide effects were measured in duplicate at each concentration.
Percent increase in cAMP levels over basal was calculated as below: [formula]
Percent inhibition of TSI activity by the synthetic α-subunit peptides was calculated as follows: [formula]
cAMP levels in the presence of synthetic peptides were compared to maximum levels using student's T test for paired samples. Mean percent inhibition between different peptides were compared with student's T test for independent samples. Correlations were determined by Pearson's R.

[4] = Solubility of peptide in assay buffers; assay type: physicochemical

Compound: C[C@H](N)C(=O)N[C@@H](CS)C(=O)N[C@@H](Cc1c[nH]cn1)C(=O)N[C@@H](CS)C(=O)N[C@@H](CO)C(=O)N[C@H](C(=O)N[C@@H](CS)C(=O)N[C@@H](Cc1ccc(O)cc1)C(=O)N[C@@H](Cc1ccc(O)cc1)C(=O)N[C@@H](Cc1c[nH]cn1)C(=O)N[C@@H](CCCCN)C(=O)N[C@@H](CO)C(=O)O)[C@@H](C)O [α81-92, Ala--Cys--His--Cys--Ser--Thr--Cys--Tyr--Tyr--His--Lys--Ser(OH)] (H-ACHCSTCYYHKS-OH)
- percent inhibition of TSH mediated cAMP generation ([1]; peptide 66.7 ug/ml): 18.03%
- percent inhibition of TSH mediated cAMP generation ([1]; peptide 133.3 ug/ml): 20.83%
- inhibition of TSH mediated cAMP generation, in words ([1]; same concentrations as the active peptides): did not significantly inhibit TSH stimulation of cAMP production; also recorded: little or no ability to inhibit TSH mediated cAMP generation
- IC50 [2]: 175 ± 3.8 µM
- inhibition of 125I-bTSH binding, result in words ([2]; FIG. 1): dose dependent inhibition; also recorded: considerably less potent
- inhibition of cAMP generated by patient immunoglobulin, in words ([3]; FIG. 7 and Table 6): did not significantly inhibit
- Percent inhibition of TSI activity ([3]; Pt. sample D, peptide 66.7 ug/ml): -18.5%
- Percent inhibition of TSI activity ([3]; Pt. sample D, peptide 133 ug/ml): -7.8%
- Percent inhibition of TSI activity ([3]; Pt. sample E, peptide 66.7 ug/ml): 29.7%
- Percent inhibition of TSI activity ([3]; Pt. sample E, peptide 133 ug/ml): 33.6%
- Percent inhibition of TSI activity ([3]; Pt. sample F, peptide 66.7 ug/ml): 9.6%
- Percent inhibition of TSI activity ([3]; Pt. sample F, peptide 133 ug/ml): -5.1%
- Percent inhibition of TSI activity ([3]; Pt. sample G, peptide 66.7 ug/ml): 19.0%
- Percent inhibition of TSI activity ([3]; Pt. sample G, peptide 133 ug/ml): 14.5%
- Percent inhibition of TSI activity ([3]; Pt. sample H, peptide 66.7 ug/ml): 0.6%
- Percent inhibition of TSI activity ([3]; Pt. sample H, peptide 133 ug/ml): -11.4%
- Percent inhibition of TSI activity ([3]; Pt. sample I, peptide 66.7 ug/ml): -13.3%
- Percent inhibition of TSI activity ([3]; Pt. sample I, peptide 133 ug/ml): -17.0%
- Percent inhibition of TSI activity ([3]; Pt. sample J, peptide 66.7 ug/ml): -2.0%
- Percent inhibition of TSI activity ([3]; Pt. sample J, peptide 133 ug/ml): -7.7%
- Percent inhibition of TSI activity, mean ([3]; peptide 66.7 ug/ml): 3.6%
- Percent inhibition of TSI activity, mean ([3]; peptide 133 ug/ml): -0.1±6.2% and -0.1%
- patient Ig samples with statistically significant inhibition of cAMP ([3]; peptide 133 ug/ml): none of the 7

Compound: CC[C@H](C)[C@H](NC(=O)[C@@H]1CCCN1C(=O)[C@H](C)NC(=O)CNC(=O)[C@@H]1CCCN1)C(=O)N[C@@H](CC(C)C)C(=O)N[C@@H](CCC(N)=O)C(=O)N[C@@H](CS)C(=O)N[C@@H](CCSC)C(=O)NCC(=O)N[C@@H](CS)C(=O)N[C@@H](CS)C(=O)N[C@@H](Cc1ccccc1)C(=O)N[C@@H](CO)C(=O)N[C@@H](CCCNC(=N)N)C(N)=O [α21-35, Pro--Gly--Ala--Pro--Ile--Leu--Gln--Cys--Met--Gly--Cys--Cys--Phe--Ser--Arg] (H-PGAPILQCMGCCFSR-NH2)
- percent inhibition of TSH mediated cAMP generation ([1]; peptide 66.7 ug/ml): 33.88%
- percent inhibition of TSH mediated cAMP generation ([1]; peptide 133.3 ug/ml): 52.50%
- behaviour in cell binding assay buffer ([4]; FRTL-5 cell binding assay buffer): precipitated in the assay buffer
- behaviour in soluble membrane assay ([4]; soluble membrane assay (FIG. 1)): remained in solution
- displacement of 125I-bTSH label ([2]; at concentrations greater than 1×10^-5 m, FIG. 1): more than 80%
- IC50 [2]: 39.9 ± 0.4 µM
- inhibition of 125I-bTSH binding, result in words ([2]; FIG. 1): dose dependent inhibition
